Where two headings read alike, the source gives them in different places.

Assay [1] relates to IL-6. Briefly: AGE (G-HSA)-induced inflammatory response determined by IL-6 ELISA in HAEC. The assay is classed as cell-based, human. As to conditions: Homo sapiens; for activity at 10 µM: 24 h, Compds tested @ 10 uM, IL6, read-out: % IL6 production compare to AGE stimulation of IL6 (100%); for IC50: IL6, unit inferred, read-out: IC50 (AGE stimulation of IL6). On the procedure: Human aortic endothelial cells (HAEC, Clonetics) were cultured according to manufacturer in growth medium (Clonetics): basal medium containing human epidermal growth factor, hydrocortisone, vascular endothelial growth factor, heparin binding growth factor-B, long R3-insulin-like growth factor-1, ascorbic acid, gentamicin/amphotericin and 5% FBS. These cell were allowed to reach at least 90% confluency before subjected to experimental treatments. […] Tumor necrosis factor α was from R&D Systems.
All treatments, compound-added and controls were carried out in serum free media containing 0.2% albumin. Media from all conditions were collected and used for IL-6 ELISA.
(§1) IL-6 ELISA was carried out using human IL-6 DuoSet ELISA development kit as described by manufacturer (R&D Systems). Mouse anti-human Il-6 was used as the capture antibody (2 ug/ml) and biotinylated goat anti-human IL-6 (200 ng/ml) was used as the detection antibody. Culture media were incubated with capture antibody (in 96 well) for 2 h at room temperature. Wells were washed three times with wash buffer (0.05% tween-20 in phosphate buffered saline (PBS) pH 7.4) followed by incubation with detection antibody for 2 h at room temperature. Following three washes wells were incubated with Streptavidin-HRP for 20 min. Color development was read at 450 nm in a Microplate reader.

Assay [2] has as its system IL-6. Briefly: TNF-α-induced IL-6 production determined by IL-6 ELISA in HAEC. As to conditions: Homo sapiens, HAEC, IL6; for activity at 10 µM: 24 h, Compds tested @ 10 uM, read-out: % IL6 production compare to TNF stimulation of IL6 (100%); for IC50: unit inferred, read-out: IC50 (TNF stimulation of IL6). The assay is classed as cell-based, human. The method, then:
Human aortic endothelial cells (HAEC, Clonetics) were cultured according to manufacturer in growth medium (Clonetics): basal medium containing human epidermal growth factor, hydrocortisone, vascular endothelial growth factor, heparin binding growth factor-B, long R3-insulin-like growth factor-1, ascorbic acid, gentamicin/amphotericin and 5% FBS. These cell were allowed to reach at least 90% confluency before subjected to experimental treatments. Glycated human serum albumin (G-HSA) was from US Biologicals. Tumor necrosis factor α was from R&D Systems.
[…] All treatments, compound-added and controls were carried out in serum free media containing 0.2% albumin. Media from all conditions were collected and used for IL-6 ELISA.
as §1

In assay [3] the test system is Human aortic smooth muscle cells. Briefly: Smooth muscle cell proliferation assay (anti-proliferation assay, perlecan). The assay is classed as cell-based. Conditions: Homo sapiens, anti-proliferation assay (perlecan).
Description: Human aortic smooth muscle cells (Clonetics) were used. Cells were grown in basal medium containing 5% fetal bovine serum supplemented with growth factors, basic fibroblast growth factor, epidermal growth factor and insulin. […] The cells were then serum starved for 24 h to induce quiescence. Fresh growth medium containing no compound or 10 μM compound was then added and further incubated for 24 h. Cell number was determined by using a cell proliferation assay kit (Celltiter96 AQueous from Promega).

In the case of `CCN1CCCC1CNc1nc(Nc2ccc(NC(C)=O)cc2)nc(NC2CCCCCC2)n1` (stereo not shown) [Compound 29, N-{4-[(4-(cycloheptylamino)-6-{[(1-ethyl-2-pyrrolidinyl)methyl]amino}-1,3,5-triazin-2-yl)-amino]phenyl}acetamide], the results for the activity at 10 µM with IL-6 [1] and with IL-6 [2] were 7% and 13%, respectively.
For the molecule `CCN1CCCC1CNc1nc(NCC2CCCCC2)nc(Nc2ccc(OC)c(F)c2)n1` (stereo not shown) [Compound 65, N^2-(cyclohexylmethyl)-N^4-[(1-ethyl-2-pyrrolidinyl)methyl]-N^6-(3-fluoro-4-methoxyphenyl)-1,3,5-triazine-2,4,6-triamine], in the assay with IL-6 [1], the activity at 10 µM worked out at 45% and the IC50 was determined as 3.24 µM. Moreover, in the assay on IL-6 [2], the activity at 10 µM was 1% and the IC50 came to 6.7 µM.
Regarding `CCN1CCCC1CNc1nc(NCCCn2ccnc2)nc(Nc2ccc(OC)c(F)c2)n1` (stereo not shown) [Compound 75, N^2-[(1-ethyl-2-pyrrolidinyl)methyl]-N^4-(3-fluoro-4-methoxyphenyl)-N^6-[3-(1H-imidazol-1-yl)propyl]-1,3,5-triazine-2,4,6-triamine], the activity at 10 µM with IL-6 [1] was 46%; with IL-6 [2], 43%.
On the same counts, the results for `CCN1CCCC1CNc1nc(Nc2ccccn2)nc(NC2CCCCCC2)n1` (stereo not shown) [Compound 34, N^2-cycloheptyl-N^4-[(1-ethyl-2-pyrrolidinyl)methyl]-N^6-(2-pyridinyl)-1,3,5-triazine-2,4,6-triamine] are 1% and 3%.
With `CCN1CCCC1CNc1nc(NCCN2CCCCC2)nc(Nc2ccc(OC)c(F)c2)n1` (stereo not shown) [Compound 71, N^2-[(1-ethyl-2-pyrrolidinyl)methyl]-N^4-(3-fluoro-4-methoxyphenyl)-N^6-[2-(1-piperidinyl)ethyl]-1,3,5-triazine-2,4,6-triamine], the activity at 10 µM is 29% in the assay with IL-6 [1] and 1% in the assay with IL-6 [2].
The corresponding values for `CCN1CCCC1CNc1nc(NC2CCCCCC2)nc(N(C)c2ccc(OC)cc2)n1` (stereo not shown) [Compound 42, N^2-cycloheptyl-N^4-[(1-ethyl-2-pyrrolidinyl)methyl]-N^6-(4-methoxyphenyl)-N^6-methyl-1,3,5-triazine-2,4,6-triamine] are 1% and 1%.
As for `CCN1CCCC1CNc1nc(Nc2cccc(NC(C)=O)c2)nc(NC2CCCCCC2)n1` (stereo not shown) [Compound 30, N-{3-[(4-(cycloheptylamino)-6-{[(1-ethyl-2-pyrrolidinyl)methyl]amino}-1,3,5-triazin-2-yl)-amino]phenyl}acetamide], the activity at 10 µM with IL-6 [1] came out at 17%; in the assay on IL-6 [2], 9%.
For `COc1ccc(Nc2nc(NC3CCCCCC3)nc(N(C)C3CCN(C)CC3)n2)cc1Br` [Compound 170], the IC50 in assay [3] (read-out: Activity (note 1)) is over 7 µM; in assay [3] (read-out: Avg IC-50), 8 to 9 µM.
For `CCN1CCCC1CNc1nc(NCCN(C)C)nc(Nc2ccc(OC)c(F)c2)n1` (stereo not shown) [Compound 68, N^2-[2-(dimethylamino)ethyl]-N^4-[(1-ethyl-2-pyrrolidinyl)methyl]-N^6-(3-fluoro-4-methoxyphenyl)-1,3,5-triazine-2,4,6-triamine], in the assay on IL-6 [1], the activity at 10 µM was determined as 40% and the IC50 was found to be 7.7 µM. For the same molecule, the activity at 10 µM in the assay with IL-6 [2] stood at 1%.
With `COc1ccc(Nc2nc(NC3CCCCCC3)nc(N(C)C3CCN(C)CC3)n2)cc1Cl` [Compound 137, N-(3-Chloro-4-methoxy-phenyl)-N′-cycloheptyl-N″-methyl-N″-(1-methyl-piperidin-4-yl)-[1,3,5]triazine-2,4,6-triamine], the IC50 was 3 to 7 µM in assay [3] (read-out: Activity (note 1)) and 4 to 5 µM in assay [3] (read-out: Avg IC-50).
With `CCN1CCCC1CNc1nc(NCC2CCCN2CC)nc(Nc2ccc(OC)c(F)c2)n1` (stereo not shown) [Compound 70, N^2,N^4-bis[(1-ethyl-2-pyrrolidinyl)methyl]-N^6-(3-fluoro-4-methoxyphenyl)-1,3,5-triazine-2,4,6-triamine], the activity at 10 µM stood at 35% in the assay with IL-6 [1] and 1% with IL-6 [2].
For `COc1ccc(Nc2nc(NCC3CCCCC3)nc(N(C)C3CCN(C)CC3)n2)cc1Cl` [Compound 103, N-(3-Chloro-4-methoxy-phenyl)-N′-cyclohexylmethyl-N″-methyl-N″-(1-methyl-piperidin-4-yl)-[1,3,5]triazine-2,4,6-triamine], the IC50 in assay [3] (read-out: Activity (note 1)) is over 7 µM; in assay [3] (read-out: Avg IC-50) it was about 7 µM.
On to `CCCC(CCC)Nc1nc(Nc2ccc(OC)c(Cl)c2)nc(N(C)C2CCN(C)CC2)n1` [Compound 105, N-(3-Chloro-4-methoxy-phenyl)-N′-methyl-N′-(1-methyl-piperidin-4-yl)-N″-(1-propyl-butyl)-[1,3,5]triazine-2,4,6-triamine], for which the figures for the IC50 in assay [3] (read-out: Activity (note 1)) and in assay [3] (read-out: Avg IC-50) were over 7 µM and about 7 µM, respectively.
For `CCN1CCCC1CNc1nc(Nc2ccc(OC)c(F)c2)nc(N2CCN(Cc3ccc4c(c3)OCO4)CC2)n1` (stereo not shown) [Compound 72, N^6-[4-(1,3-benzodioxol-5-ylmethyl)-1-piperazinyl]-N^2-[(1-ethyl-2-pyrrolidinyl)methyl]-N^4-(3-fluoro-4-methoxyphenyl)-1,3,5-triazine-2,4-diamine], the activity at 10 µM is 31% in the assay with IL-6 [1] and 5% in the assay with IL-6 [2].
With `CCN1CCCC1CNc1nc(NCc2ccco2)nc(Nc2ccc(OC)c(F)c2)n1` (stereo not shown) [Compound 66, N^2-[(1-ethyl-2-pyrrolidinyl)methyl]-N^4-(3-fluoro-4-methoxyphenyl)-N^6-(2-furylmethyl)-1,3,5-triazine-2,4,6-triamine], the activity at 10 µM with IL-6 [1] came to 23%; in the assay on IL-6 [2] it was 1%.
Take `CCN1CCCC1CNc1nc(Nc2ccc(OC)c(F)c2)nc(N2CCN(CC(=O)N3CCCC3)CC2)n1` (stereo not shown) [Compound 69, N^2-[(1-ethyl-2-pyrrolidinyl)methyl]-N^4-(3-fluoro-4-methoxyphenyl)-N^6-{4-[2-oxo-2-(1-pyrrolidinyl)ethyl]-1-piperazinyl}-1,3,5-triazine-2,4-diamine]: the activity at 10 µM in the assay with IL-6 [1] came out at 5%; in the assay on IL-6 [2], 1%.
Consider `CCN1CCCC1CNc1nc(Nc2ccc(OC)c(F)c2)nc(N2CCCC2)n1` (stereo not shown) [Compound 57, N^2-[(1-ethyl-2-pyrrolidinyl)methyl]-N^4-(3-fluoro-4-methoxyphenyl)-6-(1-pyrrolidinyl)-1,3,5-triazine-2,4-diamine], for which the activity at 10 µM in the assay on IL-6 [1] was determined as 25%; in the assay with IL-6 [2], 1%.
In the case of `COc1ccc(Nc2nc(NCCCN3CCCC3=O)nc(NC3CCCCCC3)n2)cc1F` [Compound 99, 1-[3-({4-(cycloheptylamino)-6-[(3-fluoro-4-methoxyphenyl)amino]-1,3,5-triazin-2-yl}amino)propyl]-2-pyrrolidinone], in the assay on IL-6 [1], the activity at 10 µM was found to be 8% and the IC50 amounted to 6.04 µM. Also, the activity at 10 µM in the assay on IL-6 [2] amounted to 39%.
As to `CCN1CCCC1CNc1nc(Nc2ccc(N3CCOCC3)cc2)nc(NC2CCCCCC2)n1` (stereo not shown) [Compound 27, N^2-cycloheptyl-N^4-[(1-ethyl-2-pyrrolidinyl)methyl]-N^6-[4-(4-morpholinyl)phenyl]-1,3,5-triazine-2,4,6-triamine], the activity at 10 µM in the assay with IL-6 [1] was 1%; with IL-6 [2] it was 3%.
Turning to `CCN1CCCC1CNc1nc(Nc2ccc(OC)c(F)c2)nc(N2CCN(c3ccccn3)CC2)n1` (stereo not shown) [Compound 73, N^2-[(1-ethyl-2-pyrrolidinyl)methyl]-N^4-(3-fluoro-4-methoxyphenyl)-N^6-[4-(2-pyridinyl)-1-piperazinyl]-1,3,5-triazine-2,4-diamine], in the assay on IL-6 [1], the activity at 10 µM worked out at 20% and the IC50 turned out to be 7.5 µM. Further, in the assay on IL-6 [2], the activity at 10 µM was 1% and the IC50 amounted to 8.7 µM.

For the origin of these results see patent publication US7169785B2, “Methods and compositions of novel triazine compounds” (Reddy US Therapeutics, Inc., priority 2001, dated 2007).
